# Columns and labels:
# [1] = Binding affinity against […] adrenergic receptor
# [2] = as above; remark: listed apart in the source
IC50 [1] [nM],Compound,IC50 [2] [nM]
871,CN(C)CC1CC2c3ccccc3Cc3ccc(Cl)cc3N2O1 (centres undefined),
,CN(C)CC1CC2c3ccccc3Cc3ccncc3N2O1 (centres undefined),< 1000
,CN(C)CC1CC2c3cccnc3Cc3ccccc3N2O1 (centres undefined),< 1000
1860,"CN(C)C[C@@H]1C[C@@H]2c3ccccc3Cc3ccccc3N2O1 [Dimethyl-[(2S,3aR)-1-(2,3,3a,8-tetrahydro-1-oxa-12b-aza-dibenzo[e,h]azulen-2-yl)methyl]-amine]",
